Results reported in US20140045824A1, “METHOD FOR PRODUCING COMPLEX CRYSTAL AND METHOD FOR SCREENING COMPLEX CRYSTAL” (priority 2011, published 2014).

Columns and labels:
Assay type in all cases: physicochemical
[1] = Cocrystal screening by heat melting 1-menthol (Example 1), powder X-ray diffraction and thermal analysis; set-up: key to Cocrystal formation, Example 1: A cocrystal was completely formed.; B: A mixture of a cocrystal and the host compound or guest compound was formed.; C: A cocrystal was not formed (a mixture of the host compound and the guest compound was formed); settings: host theophylline, equimolar guest, 1-menthol added, 4 hours at 80° C.
Method: Theophylline and a guest compound shown in Table 1 in an equimolar amount to theophylline were weighed and mixed using an agate mortar. […] Thereafter, the obtained mixed powder of theophylline, the guest compound, and 1-menthol was heated for 4 hours in an oven at 80° C., and the obtained solid was subjected to powder X-ray diffraction measurement and thermal analysis.

[2] = Cocrystal screening by slurry method (Comparative Examples 1-1 to 1-6), powder X-ray diffraction; set-up: key to Cocrystal formation, Comparative Example 1* / Cocrystal formation, Comparative Example 1-1 / Cocrystal formation, Comparative Example 1-2 / Cocrystal formation, Comparative Example 1-3 / Cocrystal formation, Comparative Example 1-4 / Cocrystal formation, Comparative Example 1-5 / Cocrystal formation, Comparative Example 1-6: A cocrystal was completely formed.; B: A mixture of a cocrystal and the host compound or guest compound was formed.; C: A cocrystal was not formed (a mixture of the host compound and the guest compound was formed); settings: host theophylline; for Cocrystal formation, Comparative Example 1-6: slurry in acetone; for Cocrystal formation, Comparative Example 1-6 / Cocrystal formation, Comparative Example 1-2 / Cocrystal formation, Comparative Example 1-5 / Cocrystal formation, Comparative Example 1-3 / Cocrystal formation, Comparative Example 1-4 / Cocrystal formation, Comparative Example 1-1: room temperature 7 days; for Cocrystal formation, Comparative Example 1-2: slurry in ethanol; for Cocrystal formation, Comparative Example 1-5: slurry in ethyl acetate; for Cocrystal formation, Comparative Example 1-3: slurry in tetrahydrofuran; for Cocrystal formation, Comparative Example 1-4: slurry in toluene; for Cocrystal formation, Comparative Example 1-1: slurry in water; for Cocrystal formation, Comparative Example 1*: slurry summary: A if a cocrystal was formed in any one of Comparative Examples 1-1 to 1-6
Method: (§1) 3 mg (0.0167 mmoles) of theophylline and a guest compound shown in Table 1 in an equimolar amount (0.0167 mmoles) to theophylline were weighed and put into a glass container, to which was then added 60 μL of water. These were shaken at room temperature for 7 days, and the obtained residues were subjected to powder X-ray diffraction measurement. 3 mg (0.0167 mmoles) of theophylline and a guest compound shown in Table I in an equimolar amount (0.0167 mmoles) to theophylline were weighed and put into a glass container, to which was then added 60 μL of ethanol. These were shaken at room temperature for 7 days, and the obtained residues were subjected to powder X-ray diffraction measurement. 3 mg (0.0167 mmoles) of theophylline and a guest compound shown in Table 1 in an equimolar amount (0.0167 mmoles) to theophylline were weighed and put into a glass container, to which was then added 60 μL of tetrahydrofuran. This was shaken at room temperature for 7 days, and the obtained residues were subjected to powder X-ray diffraction measurement. 3 mg (0.0167 mmoles) of theophylline and a guest compound shown in Table 1 in an equimolar amount (0.0167 mmoles) to theophylline were weighed and put into a glass container, to which was then added 60 μL of toluene. These were shaken at room temperature for 7 days, and the obtained residues were subjected to powder X-ray diffraction measurement. 3 mg (0.0167 mmoles) of theophylline and a guest compound shown in Table 1 in an equimolar amount (0.0167 mmoles) to theophylline were weighed and put into a glass container, to which was then added 60 μL of ethyl acetate. These were shaken at room temperature for 7 days, and the obtained residues were subjected to powder X-ray diffraction measurement. 3 mg (0.0167 mmoles) of theophylline and a guest compound shown in Table 1 in an equimolar amount (0.0167 mmoles) to theophylline were weighed and put into a glass container, to which was then added 60 μL of acetone. These were shaken at room temperature for 7 days, and the obtained residues were subjected to powder X-ray diffraction measurement.

[3] = Cocrystal screening by co-grinding method (Comparative Example 2); set-up: key: A cocrystal was completely formed.; B: A mixture of a cocrystal and the host compound or guest compound was formed.; C: A cocrystal was not formed (a mixture of the host compound and the guest compound was formed); settings: host theophylline, equimolar guest, mixed/ground in agate mortar
Method: (§2) 3 mg (0.0167 mmoles) of theophylline and a guest compound shown in Table 1 in an equimolar amount (0.0167 mmoles) to theophylline were weighed and mixed using an agate mortar. At that time, particles having a large size to an extent that they could be distinguished through visual inspection were grinded on the agate mortar. The obtained solids were subjected to powder X-ray diffraction measurement and thermal analysis.

[4] = Cocrystal screening by slurry method (Comparative Examples 4-1 to 4-6), powder X-ray diffraction; set-up: key: A cocrystal was completely formed.; B: A mixture of a cocrystal and the host compound or guest compound was formed.; C: A cocrystal was not formed (a mixture of the host compound and the guest compound was formed); settings: host carbamazepine; for Cocrystal formation, Comparative Example 4-6: slurry in acetone; for Cocrystal formation, Comparative Example 4-6 / Cocrystal formation, Comparative Example 4-2 / Cocrystal formation, Comparative Example 4-5 / Cocrystal formation, Comparative Example 4-4 / Cocrystal formation, Comparative Example 4-1 / Cocrystal formation, Comparative Example 4-3: room temperature 7 days; for Cocrystal formation, Comparative Example 4-2: slurry in ethanol; for Cocrystal formation, Comparative Example 4-5: slurry in ethyl acetate; for Cocrystal formation, Comparative Example 4-4: slurry in toluene; for Cocrystal formation, Comparative Example 4-1: slurry in water; for Cocrystal formation, Comparative Example 4*: slurry summary: A if a cocrystal was formed in any one of Comparative Examples 4-1 to 4-6; for Cocrystal formation, Comparative Example 4-3: slurry in tetrahydrofuran
Method: as §1, with “(0.0127” for “(0.0167”, “carbamazepine” for “theophylline”, “4” for “1”, “4” for “I”, “These were” for “This was”

[5] = Cocrystal screening by mixing and grinding method (Comparative Example 5); set-up: key: A cocrystal was completely formed.; B: A mixture of a cocrystal and the host compound or guest compound was formed.; C: A cocrystal was not formed (a mixture of the host compound and the guest compound was formed); settings: host carbamazepine, equimolar guest, mixed/ground in agate mortar
Source text: as §2, with “Carbamazepine” for “3 mg (0.0167 mmoles) of theophylline”, “4” for “1”, “amount” for “amount (0.0167 mmoles)”, “carbamazepine” for “theophylline”

Row | Cocrystal formation, Example 1 [1] | Cocrystal formation, Comparative Example 1-6 [2] | Cocrystal formation, Comparative Example 1-2 [2] | Cocrystal formation, Comparative Example 1-5 [2] | Cocrystal formation, Comparative Example 1-3 [2] | Cocrystal formation, Comparative Example 1-4 [2] | Cocrystal formation, Comparative Example 1-1 [2] | Cocrystal formation, Comparative Example 1* [2] | Cocrystal formation, Comparative Example 2 [3] | Cocrystal formation, Comparative Example 4-6 [4] | Cocrystal formation, Comparative Example 4-2 [4] | Cocrystal formation, Comparative Example 4-5 [4] | Cocrystal formation, Comparative Example 4-4 [4] | Cocrystal formation, Comparative Example 4-1 [4] | Cocrystal formation, Comparative Example 4* [4] | Cocrystal formation, Comparative Example 5 [5] | Cocrystal formation, Comparative Example 4-3 [4] | Structure (SMILES)
1 | C | C | C | C | C | C | C | C | C | C | C | C | C | C | C | C | – | NCC(=O)O [Glycine]
2 | A | A | A | A | A | A | C | A | A | A | A | A | A | C | A | C | A | O=S(=O)(O)CCS(=O)(=O)O [Ethanedisulfonic acid]
3 | A | C | C | C | C | C | A | A | C | C | A | A | A | B | A | C | A | NC(=O)c1ccccc1 [Benzamide]
4 | B | C | C | A | C | A | C | A | C | C | C | C | C | C | C | C | – | C/C=C/C=C/C(=O)O [Sorbic acid]
5 | B | A | C | A | A | C | C | A | B | C | C | A | B | C | A | C | – | O=C(O)C(=O)O [Oxalic acid]
6 | A | C | C | A | C | A | C | A | C | C | A | A | A | A | A | C | A | O=C(O)/C=C\C(=O)O [Maleic acid]
